# Reference: US20250281606A1 (AKSEERA PHARMA CORP., priority 2020, published 2025)
# “And” between values parts separate entries of the source, which are not always exact repeats. Identical values can stand only once. Like-named read-outs stand apart in the source and are kept apart here.
# What was measured:
# [1] = tested on: IgG and IgM antibody titres (serum); assay type: in vivo, Balb/c mice
# [2] = tested on: IgG and IgM antibody titres (serum); assay: IgG and IgM antibody titres in mice vaccinated with Covishield, with or without oral CBD; conditions: for IgG, serum (CLIA, EIA) / IgM, serum (CLIA, EIA): individual mice (F/M); for augmentation of overall IgG response to vaccine by CBD / augmentation of overall IgM response to vaccine by CBD: CBD throughout or until vaccination, same magnitude, vs vaccine alone; for time after vaccine by which IgG and IgM responses were significantly elevated compared to mice not given CBD: CBD throughout the study or just until vaccine
# [3] = 0 Day, group GII (CS): Covishild + CBD 102.5 mg/kg/d gavage day -7 to 28
# [4] = 0 Day, group GIII (CS): Covishild + CBD 102.5 mg/kg/d gavage day -7 to 0, then discontinued
# [5] = 7th Day, group GII (CS): Covishild + CBD 102.5 mg/kg/d gavage day -7 to 28
# [6] = 7th Day, group GIII (CS): Covishild + CBD 102.5 mg/kg/d gavage day -7 to 0, then discontinued
# [7] = 14 Day, group GII (CS): Covishild + CBD 102.5 mg/kg/d gavage day -7 to 28
# [8] = 14 Day, group GIII (CS): Covishild + CBD 102.5 mg/kg/d gavage day -7 to 0, then discontinued
structure (smiles),measurement,setting,value
"C=C(C)[C@@H]1CCC(C)=C[C@H]1c1c(O)cc(CCCCC)cc1O [CBD Formulation, Cannabidiol]","IgG, serum (CLIA, EIA)",[1]; 0 Day,7.4 IU/mL and 6.8 IU/mL and 7.2 IU/mL and 7.1 IU/mL and 9.2 IU/mL and 7.5 IU/mL and 8.21 IU/mL
same,"IgG, serum (CLIA, EIA)",[1]; 14 Day,7.2 IU/mL and 6.4 IU/mL and 7.1 IU/mL and 7.4 IU/mL and 6 IU/mL and 9.1 IU/mL and 7 IU/mL and 7.3 IU/mL
same,"IgM, serum (CLIA, EIA)",[1]; 14 Day,9.3 AU/mL and 9.8 AU/mL and 10.2 AU/mL and 10.3 AU/mL and 9 AU/mL and 10.4 AU/mL and 9.2 AU/mL
same,"IgG, serum (CLIA, EIA)",[1]; 21 Day,7.3 IU/mL and 7.1 IU/mL and 7.5 IU/mL and 7.2 IU/mL and 9.1 IU/mL and 7 IU/mL and 7.4 IU/mL
same,"IgG, serum (CLIA, EIA)","[1]; mouse, in vivo",7.2 IU/mL and 7.1 IU/mL and 7.3 IU/mL and 6.9 IU/mL and 9.2 IU/mL and 7.5 IU/mL and 8.21 IU/mL
same,"IgM, serum (CLIA, EIA)","[1]; mouse, in vivo",10.2 AU/mL and 9.8 AU/mL and 10 AU/mL and 10.1 AU/mL and 10.3 AU/mL
same,augmentation by CBD of the response to Covaxin compared with Covishield,"[1]; mouse, in vivo",tended to be less
same,day at which a rise in IgM was seen,"[1]; mouse, in vivo",7 days
same,day at which a significant rise in IgG and IgM was apparent,"[1]; mouse, in vivo",7 days
same,day by which a rise in IgG was seen,"[1]; mouse, in vivo",≤ 14 days
same,overall IgM response to Covaxin versus Covaxin alone,"[1]; mouse, in vivo",augmented
same,"IgG, serum (CLIA, EIA)",[2]; [3],7.4 IU/mL and 7.8 IU/mL and 7.1 IU/mL (2×) and 6.8 IU/mL and 6.4 IU/mL
same,"IgM, serum (CLIA, EIA)",[2]; [3],9.2 AU/mL (2×) and 8.2 AU/mL and 10.1 AU/mL and 9.4 AU/mL and 8.8 AU/mL
same,"IgG, serum (CLIA, EIA)",[2]; [4],7.5 IU/mL and 6.8 IU/mL (2×) and 6.5 IU/mL and 7.21 IU/mL and 7.2 IU/mL
same,"IgM, serum (CLIA, EIA)",[2]; [4],9.4 AU/mL and 9.3 AU/mL (3×) and 9.2 AU/mL and 9.1 AU/mL
same,"IgG, serum (CLIA, EIA)",[2]; [5],7.4 IU/mL and 7.5 IU/mL and 8.2 IU/mL and 7.3 IU/mL (2×) and 7.8 IU/mL
same,"IgM, serum (CLIA, EIA)",[2]; [5],10.2 AU/mL and 8.2 AU/mL and 10.11 AU/mL and 10.5 AU/mL and 10.4 AU/mL
same,"IgG, serum (CLIA, EIA)",[2]; [6],7.4 IU/mL and 6.9 IU/mL and 7.3 IU/mL (2×) and 7.2 IU/mL and 7.1 IU/mL
same,"IgM, serum (CLIA, EIA)",[2]; [6],9.2 AU/mL and 9.6 AU/mL and 10.1 AU/mL and 10.2 AU/mL and 10.3 AU/mL
same,"IgG, serum (CLIA, EIA)",[2]; [7],7.5 IU/mL and 7.8 IU/mL (3×) and 7.6 IU/mL and 8.2 IU/mL
same,"IgM, serum (CLIA, EIA)",[2]; [7],10.5 AU/mL and 10.15 AU/mL and 10.52 AU/mL
same,"IgG, serum (CLIA, EIA)",[2]; [8],7.5 IU/mL (2×) and 7.6 IU/mL and 7.3 IU/mL and 7.8 IU/mL and 7.9 IU/mL
same,"IgM, serum (CLIA, EIA)",[2]; [8],10.1 AU/mL and 10.5 AU/mL and 10.3 AU/mL (2×)
same,"IgG, serum (CLIA, EIA)","[2]; 21 Day, group GII (CS): Covishild + CBD 102.5 mg/kg/d gavage day -7 to 28",7.8 IU/mL (2×) and 7.1 IU/mL and 7.5 IU/mL and 7.9 IU/mL and 8.1 IU/mL
same,"IgG, serum (CLIA, EIA)","[2]; 21 Day, group GIII (CS): Covishild + CBD 102.5 mg/kg/d gavage day -7 to 0, then discontinued",7.6 IU/mL (2×) and 8.1 IU/mL (3×) and 7.8 IU/mL
same,augmentation of overall IgG response to vaccine by CBD,"[2]; FIG. 2C, average overall response over 28 days",15%
same,augmentation of overall IgM response to vaccine by CBD,"[2]; FIG. 2D, average overall response over 28 days",25%
same,augmentation of overall IgG response to vaccine by CBD,"[2]; FIG. 2I, AUC over 28 days, female mice",13%
same,augmentation of overall IgM response to vaccine by CBD,"[2]; FIG. 2J, AUC over 28 days, female mice",21%
same,time after vaccine by which IgG and IgM responses were significantly elevated compared to mice not given CBD,[2]; FIGS. 2E and 2F,≤ 7 days
same,IgG response at day 7 versus vehicle (no CBD) group,"[2]; FIGS. 2K and 2L, female mice, CBD given throughout the trial",significantly better IgG response
same,time after vaccine by which IgG and IgM responses were significantly elevated compared to mice not given CBD,"[2]; FIGS. 2K and 2L, female mice",≤ 14 days
same,course of antibody titres in mice given vaccine plus CBD,"[2]; compared with vaccine without CBD, whose titres did not rise, up to day 28",rose and remained elevated until day 28
